biological target: T1, Polθ polymerase domain (amino acids 1792-2590) (Homo sapiens, UniProt O75417); experiment: Picogreen assay of Polθ polymerase activity; assay type: biochemical; conditions: 12-point concentration response, 90 minutes incubation at room temperature, 8 nM Polθ in 2×polymerase mixture, read-out: PolQ IC50
T1 construct: 10×Histidine-SUMO (N, cleaved yes); made in house; host or cells: E. coli
T1 sequence (O75417 1792-2590): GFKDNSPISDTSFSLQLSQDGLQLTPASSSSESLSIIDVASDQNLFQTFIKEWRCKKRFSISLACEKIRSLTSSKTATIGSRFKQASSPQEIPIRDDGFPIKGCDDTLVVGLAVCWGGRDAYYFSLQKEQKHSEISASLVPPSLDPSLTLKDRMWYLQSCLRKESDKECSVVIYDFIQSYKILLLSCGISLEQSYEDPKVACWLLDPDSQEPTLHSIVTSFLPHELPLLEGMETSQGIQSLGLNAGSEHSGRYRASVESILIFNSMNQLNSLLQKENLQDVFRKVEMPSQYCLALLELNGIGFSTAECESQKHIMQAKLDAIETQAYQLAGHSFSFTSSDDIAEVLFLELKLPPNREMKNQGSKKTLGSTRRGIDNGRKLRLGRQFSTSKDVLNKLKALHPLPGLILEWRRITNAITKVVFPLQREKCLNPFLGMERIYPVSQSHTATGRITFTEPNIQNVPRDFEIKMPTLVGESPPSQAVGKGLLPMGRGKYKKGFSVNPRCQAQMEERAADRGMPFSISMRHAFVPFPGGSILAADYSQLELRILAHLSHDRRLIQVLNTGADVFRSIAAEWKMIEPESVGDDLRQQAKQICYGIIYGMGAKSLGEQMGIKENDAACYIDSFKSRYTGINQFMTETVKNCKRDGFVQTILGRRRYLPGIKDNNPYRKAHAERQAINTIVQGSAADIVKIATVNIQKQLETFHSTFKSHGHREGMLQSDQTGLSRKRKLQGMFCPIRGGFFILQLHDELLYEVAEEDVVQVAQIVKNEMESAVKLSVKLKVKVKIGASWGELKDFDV
Source text: The DNA sequence of the polQ gene (Genebank ID #NM 199420.4) was chemically synthesized. The DNA sequence encoding the polymerase domain (amino acids 1792-2590) was subcloned into an E. coli expression plasmid, resulting in the fusion of 10×Histidine-SUMO tag at the N terminus of the polymerase domain.
The protein was expressed in E. coli. and purified using a 2-step IMAC (immobilized metal chelate affinity chromatography) procedure. Briefly stated, the overexpressed E. coli lysate was subjected to Ni-NTA purification, and an N-terminal tag was digested by a SUMO protease. Then, the excised fragment of 10×Histidine-SUMO tag was removed using Ni-NTA beads. The resulting protein was used for the Picogreen assay, as described below.
The methods of DNA complex preparation were slightly modified from the protocol previously reported (Zatreanu et al., 2021, Nature Communications, 12:3636). Briefly stated, polθ substrate was prepared by mixing Oligo1 (5′-GCG GCT GTC ATA AG-3′) and Oligo2 (5′-GCTACATTGACAATGGCATCAAATCTCAGATTGCGTCTTATGACAGCCGCG-3′) in an annealing buffer (20 mM Tris-Cl, pH 7.5, 50 mM NaCl) to the final concentration of 22 uM and 20 uM, respectively. The Polθ product was prepared by mixing Oligo3 (5′-CGCGGCTGTCATAAGACGCAATCTGAGATTTGATGCCATTGTCAATGTAGC-3′) and Oligo2 (5′-GCTACATTGACAATGGCATCAAATCTCAGATTGCGTCTTATGACAGCCGCG-3′) to the final concentration of 20 uM. The polθ product was used for the top signal control in the Picogreen assay. Both substrate and product were heated to 95° C. […] and cooled slowly to room temperature.
To evaluate the ability of test compounds to inhibit the activity of polθ in vitro, a Picogreen assay was performed to measure polθ IC50 (nM).
The reactions were performed at room temperature in an assay buffer (25 mM Tris-HCl, pH 7.5, 12.5 mM NaCl, 0.5 mM MgCl2, 5% (v/v) glycerol, 0.01% (v/v) Triton X-100, 0.01% (w/v) Bovine serum albumin, 1 mM DTT). Thirty microliters of 2×polymerase mixture (8 nM Polθ enzyme in an assay buffer) were distributed to 96 well plates, test compounds were prepared by dilution in 100% DMSO to obtain the correct dose range for a 12-point concentration response and 1 μl was dispensed into each well, and then 30 microliters of 2×substrate mix (100 nM DNA and 40 uM dNTPs in an assay buffer) was added. After 90 minutes of incubation, the reaction was stopped and DNA was stained by adding 40 microliters of Picogreen solution (1:80 dilution of Picogreen, Invitrogen, Cat #P7581, 25 mM Tris-HCl, pH 7.5, 10 mM EDTA, pH 7.5).
The fluorescence intensity was measured at excitation/emission=485 nm/520 nm using an Ensight plate reader (Perkin Elmer). The data was analyzed by GraphPad Prism software (Version 8.4.3) to calculate IC50.

| SMILES | IC50 [nM] |
| --- | --- |
| Cc1cc(C(F)(F)F)cc(N2[C@H](C(=O)N(CC#Cc3nccc(N4CCOCC4)n3)c3ccc(F)c(C)c3)CCS2(=O)=O)n1 [compound 80] | 1 to 50 |
| Cc1cc(C(F)(F)F)cc(N2[C@H](C(=O)N(CC#Cc3ncc(C(N)=O)cn3)c3ccc(F)c(C)c3)CCS2(=O)=O)n1 [compound 81] | > 101 |
| Cc1cc(C(F)(F)F)cc(N2[C@H](C(=O)N(CC#Cc3ncc(C(=O)N4CCOCC4)cn3)c3ccc(F)c(C)c3)CCS2(=O)=O)n1 [compound 82] | 51 to 100 |
| Cc1cc(C(F)(F)F)cc(N2[C@H](C(=O)N(CC#Cc3ncc(C(=O)N4C5CCC4COC5)cn3)c3ccc(F)c(C)c3)CCS2(=O)=O)n1 [compound 83] | 1 to 50 |
| Cc1cc(C(F)(F)F)cc(N2[C@H](C(=O)N(CC#Cc3ccc(N4CCOCC4)cn3)c3ccc(F)c(C)c3)CCS2(=O)=O)n1 [compound 84] | 1 to 50 |
| Cc1cc(C(F)(F)F)cc(N2[C@H](C(=O)N(CC#Cc3ccc(N4CCOCC4)nc3)c3ccc(F)c(C)c3)CCS2(=O)=O)n1 [compound 85] | 1 to 50 |
| Cc1cc(C(F)(F)F)cc(N2[C@H](C(=O)N(CC#Cc3cccc(N4CCOCC4)n3)c3ccc(F)c(C)c3)CCS2(=O)=O)n1 [compound 86] | 1 to 50 |
| Cc1cc(C(F)(F)F)cc(N2[C@H](C(=O)N(CC#Cc3cccc(=O)[nH]3)c3ccc(F)c(C)c3)CCS2(=O)=O)n1 [compound 87] | 51 to 100 |
| Cc1cc(C(F)(F)F)cc(N2[C@H](C(=O)N(CC#Cc3cccc(OC(C)C)n3)c3ccc(F)c(C)c3)CCS2(=O)=O)n1 [compound 88] | > 101 |
| Cc1cc(C(F)(F)F)cc(N2[C@H](C(=O)N(CC#Cc3cccc(OC(F)F)n3)c3ccc(F)c(C)c3)CCS2(=O)=O)n1 [compound 89] | 51 to 100 |
| Cc1cc(C(F)(F)F)cc(N2[C@H](C(=O)N(CC#Cc3cc(C)c(F)c(C)n3)c3ccc(F)c(C)c3)CCS2(=O)=O)n1 [compound 90] | 51 to 100 |
| Cc1cc(C(F)(F)F)cc(N2[C@H](C(=O)N(CC#Cc3cc(C)c(N)c(C)n3)c3ccc(F)c(C)c3)CCS2(=O)=O)n1 [compound 91] | 1 to 50 |
| Cc1cc(C(F)(F)F)cc(N2[C@H](C(=O)N(CC#Cc3cccc(=O)n3C)c3ccc(F)c(C)c3)CCS2(=O)=O)n1 [compound 92] | 1 to 50 |
| Cc1cc(C(F)(F)F)cc(N2[C@H](C(=O)N(CC#Cc3ccc(F)cn3)c3ccc(F)c(C)c3)CCS2(=O)=O)n1 [compound 93] | 1 to 50 |
| Cc1cc(C(F)(F)F)cc(N2[C@H](C(=O)N(CC#Cc3ccc(F)c(C(C)C)n3)c3ccc(F)c(C)c3)CCS2(=O)=O)n1 [compound 94] | 51 to 100 |
| Cc1cc(C(F)(F)F)cc(N2[C@H](C(=O)N(CC#Cc3ccc(C(N)=O)nc3)c3ccc(F)c(C)c3)CCS2(=O)=O)n1 [compound 95] | 1 to 50 |
| Cc1cc(C(F)(F)F)cc(N2[C@H](C(=O)N(CC#Cc3cnc(C(N)=O)c(F)c3)c3ccc(F)c(C)c3)CCS2(=O)=O)n1 [compound 96] | 1 to 50 |
| Cc1cc(C(F)(F)F)cc(N2[C@H](C(=O)N(CC#Cc3ccc(C(N)=O)cn3)c3ccc(F)c(C)c3)CCS2(=O)=O)n1 [compound 97] | 1 to 50 |
| Cc1cc(C(F)(F)F)cc(N2[C@H](C(=O)N(CC#Cc3cnc4c(c3)CN(C)C4=O)c3ccc(F)c(C)c3)CCS2(=O)=O)n1 [compound 98] | 1 to 50 |
| Cc1cc(C(F)(F)F)cc(N2[C@H](C(=O)N(CC#Cc3cnc4c(c3)C(C)(C)N(C)C4=O)c3ccc(F)c(C)c3)CCS2(=O)=O)n1 [compound 99] | 1 to 50 |

| SMILES | IC50 [nM] |
| --- | --- |
| Cc1cc(C(F)(F)F)cc(N2[C@H](C(=O)N(CC#Cc3cnc4c(c3)C(=O)N(C)C4=O)c3ccc(F)c(C)c3)CCS2(=O)=O)n1 [compound 100] | 1 to 50 |
| Cc1cc(C(F)(F)F)cc(N2[C@H](C(=O)N(CC#Cc3n[nH]c(=O)c4ccccc34)c3ccc(F)c(C)c3)CCS2(=O)=O)n1 [compound 101] | 51 to 100 |
| Cc1cc(C(F)(F)F)cc(N2[C@H](C(=O)N(CC#Cc3cncn3C)c3ccc(F)c(C)c3)CCS2(=O)=O)n1 [compound 102] | 1 to 50 |
| Cc1cc(C(F)(F)F)cc(N2[C@H](C(=O)N(CC#Cc3ncnc(N4CCOCC4)n3)c3ccc(F)c(C)c3)CCS2(=O)=O)n1 [compound 103] | > 101 |
| Cc1cc(C(F)(F)F)cc(N2[C@H](C(=O)N(CC#Cc3nc(C(N)=O)co3)c3ccc(F)c(C)c3)CCS2(=O)=O)n1 [compound 104] | 1 to 50 |
| Cc1cc(C(F)(F)F)cc(N2[C@H](C(=O)N(CC#Cc3ccc(C(N)=O)cc3)c3ccc(F)c(C)c3)CCS2(=O)=O)n1 [compound 105] | 1 to 50 |
| Cc1cc(C(F)(F)F)cc(N2[C@H](C(=O)N(CC#Cc3cccc(C(N)=O)c3)c3ccc(F)c(C)c3)CCS2(=O)=O)n1 [compound 106] | 1 to 50 |
| Cc1cccc(N(CC#Cc2ccc(N)nn2)C(=O)[C@@H]2CN(C)S(=O)(=O)N2c2cc(C(F)(F)F)cc(C)n2)c1 [compound 107] | 1 to 50 |
| Cc1cccc(N(CC#Cc2cnc(N)cn2)C(=O)[C@@H]2CN(C)S(=O)(=O)N2c2cc(C(F)(F)F)cc(C)n2)c1 [compound 108] | 51 to 100 |
| Cc1cc(C(F)(F)F)cc(N2[C@H](C(=O)N(CC#Cc3ccc(N)nn3)c3ccc(F)c(C)c3)CN(C)S2(=O)=O)n1 [compound 109] | 1 to 50 |
| Cc1cc(C(F)(F)F)cc(N2[C@H](C(=O)N(CC#Cc3ccc(N)nn3)c3ccc(F)c(C)c3)CN(C(C)C)S2(=O)=O)n1 [compound 110] | 1 to 50 |
| Cc1cc(C(F)(F)F)cc(N2[C@H](C(=O)N(CC#Cc3ccc(C(=O)N(C)C)nc3)c3ccc(F)c(C)c3)CCS2(=O)=O)n1 [compound 111] | 1 to 50 |
| Cc1cc(C(F)(F)F)cc(N2[C@H](C(=O)N(CC#Cc3ccc(C(N)=O)nc3)C(C)(C)c3ccc(F)c(C)c3)CCS2(=O)=O)n1 [compound 112] | > 101 |
| Cc1cc(C(F)(F)F)cc(N2[C@H](C(=O)N(CC#Cc3ccc(C(N)=O)nc3)Cc3ccc(F)c(C)c3)CCS2(=O)=O)n1 [compound 113] | > 101 |
| Cc1cc(C(F)(F)F)cc(N2[C@@H](C(=O)N(CC#Cc3ccc(C(N)=O)nc3)Cc3ccc(F)c(C)c3)CCS2(=O)=O)n1 [compound 114] | > 101 |
| Cc1cc(C(F)(F)F)cc(N2[C@H](C(=O)N(CC#Cc3ccc(C#N)nc3)c3ccc(F)c(C)c3)CCS2(=O)=O)n1 [compound 115] | 1 to 50 |
| Cc1cc(C(F)(F)F)cc(N2[C@H](C(=O)N(CC#Cc3ccc(-c4ncon4)nc3)c3ccc(F)c(C)c3)CCS2(=O)=O)n1 [compound 116] | 1 to 50 |
| Cc1cc(C(F)(F)F)cc(N2[C@H](C(=O)N(CC#Cc3ccc(C(N)=O)nc3C)c3ccc(F)c(C)c3)CCS2(=O)=O)n1 [compound 117] | 1 to 50 |
| Cc1cc(C(F)(F)F)cc(N2[C@H](C(=O)N(CC#Cc3ncc(C(N)=O)nc3C)c3ccc(F)c(C)c3)CCS2(=O)=O)n1 [compound 118] | 1 to 50 |

— patent US20260297083A1, “SUBSTITUTED ACETYLENE COMPOUND DERIVATIVES AND THEIR PHARMACEUTICAL USE” (AVELOS THERAPEUTICS INC., priority 2023, published 2026)
